Experiments:
[1] = test system: inactivated state of the channel of interest (sodium channel); experiment: Electrophysiological assay (whole cell voltage clamp, in vitro); assay type: cell-based; settings: affinity for the inactivated state of the channel of interest
Method: Cells expressing the channel of interest are cultured in DMEM growth media (Gibco) with 0.5 mg/mL G418, +/−1% PSG, and 10% heat-inactivated fetal bovine serum at 37° C. and 5% CO2. For electrophysiological recordings, cells are plated on 10 mm dishes.
Whole cell recordings are examined by established methods of whole cell voltage clamp (Bean et al., op. cit.) using an Axopatch 200B amplifier and Clampex software (Axon Instruments, Union City, Calif.). All experiments are performed at ambient temperature. Electrodes are fire-polished to resistances of 2-4 Mohms Voltage errors and capacitance artifacts are minimized by series resistance compensation and capacitance compensation, respectively. Data are acquired at 40 kHz and filtered at 5 kHz. The external (bath) solution consists of: NaCl (140 mM), KCl (5 mM), CaCl2 (2 mM), MgCl2 (1 mM), HEPES (10 mM) at pH 7.4. The internal (pipette) solution consists of (in mM): NaCl (5), CaCl2 (0.1), MgCl2 (2), CsCl (10), CsF (120), HEPES (10), EGTA (10), at pH 7.2.
To estimate the steady-state affinity of compounds for the resting and inactivated state of the channel (Kr and Ki, respectively), 12.5 ms test pulses to depolarizing voltages from −60 to +90 mV from a holding potential of −120 m V is used to construct current-voltage relationships (I-V curves). A voltage near the peak of the IV-curve (−30 to 0 m V) is used as the test pulse throughout the remainder of the experiment. Steady-state inactivation (availability) curves are then constructed by measuring the current activated during a 8.75 ms test pulse following 1 second conditioning pulses to potentials ranging from −120 to −10 m V.
The steady-state voltage-dependence of binding of a compound to a sodium channel is determined by measuring the blockage of the ionic current at two holding potentials. Binding to rested-state channels is determined by using a holding potential of −120 mV, so that maximal availability is achieved. Binding to inactivated-state channels is evaluated at a holding potential such that only 10% of the channels are available to open. The membrane potential is held at this voltage for at least 10 seconds so that drug binding can equilibrate.
The apparent dissociation constant at each voltage is calculated with the equation:
[formula] where Kd is the dissociation constant (either Kr or Ki), and [Drug] is the concentration of the test compound.
The Example numbers provided in Table 3 correspond to the Examples herein: […]

[2] = molecular target: CYP3A4 (Homo sapiens, UniProt P08684); experiment: Cytochrome P450 (CYP450) Inhibition Assay, CYP3A4 (Vivid fluorescence, BOMCC substrate); settings: human, P450 Baculosomes (recombinant CYP3A4), probe BOMCC (Vivid substrate)
[3] = test system: sodium channel; experiment: Guanidine influx assay (14C-guanidine radiotracer flux, in vitro); assay type: cell-based, human or rat; settings: guanidine influx assay using a known cell line that expresses a sodium channel
Outline: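 Cells stably expressing human or rat sodium channels (~100,000/well, 20–24 h) were exposed in low-sodium choline buffer to test agent plus aconitine activator and 14C-guanidine at ambient temperature. Intracellular 14C-guanidine was counted by scintillation; IC50 fitted by 4-parameter logistic over half-dilutions around 1 μM.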

CYP3A4, sequence (P08684 whole entry): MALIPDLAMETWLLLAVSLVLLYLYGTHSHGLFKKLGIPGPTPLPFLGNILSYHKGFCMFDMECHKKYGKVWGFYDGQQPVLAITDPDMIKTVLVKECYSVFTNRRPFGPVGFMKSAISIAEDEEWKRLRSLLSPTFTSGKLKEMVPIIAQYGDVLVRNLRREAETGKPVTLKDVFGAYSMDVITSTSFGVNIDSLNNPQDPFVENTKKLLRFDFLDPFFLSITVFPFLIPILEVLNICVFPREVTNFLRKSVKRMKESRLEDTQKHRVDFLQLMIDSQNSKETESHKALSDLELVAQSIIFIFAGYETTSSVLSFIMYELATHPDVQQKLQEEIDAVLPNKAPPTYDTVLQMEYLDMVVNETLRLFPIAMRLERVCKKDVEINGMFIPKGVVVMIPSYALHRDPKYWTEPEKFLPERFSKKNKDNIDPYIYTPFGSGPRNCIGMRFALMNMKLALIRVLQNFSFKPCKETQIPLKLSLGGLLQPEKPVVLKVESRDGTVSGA

Row | Structure (SMILES) | melting point [°C] | inhibition at 10 µM [2] [%] | IC50 ([3]; activity level class) [nM] | IC50 [3] [nM] | Ki [1] [nM]
1 | O=C1N(Cc2cccnc2)c2ccccc2C12COc1cc3c(cc12)OCCO3 (stereo not drawn) [Example 1.2, 1-(pyridin-3-ylmethyl)-2,3-dihydrospiro[furo[2,3-g][1,4]benzodioxine-8,3′-indol]-2′(1′H)-one] | 142 to 143 | < 50 | 1 to 100 |  | > 300
2 | O=C1N(Cc2ccc(O)cn2)c2ccccc2[C@]12COc1cc3c(cc12)OCCO3 [Example 1.13, (8S)-1′-[(5-hydroxypyridin-2-yl)methyl]-2,3-dihydrospiro[furo[2,3-g][1,4]benzodioxine-8,3′-indol]-2′(1′H)-one] | 256 to 258 | < 50 | 100 to 1000 |  | < 300
3 | O=C1N(Cc2ccc(C(F)(F)F)o2)c2cc3c(cc2C12COc1cc4c(cc12)OCCO4)OCCO3 (stereo not drawn) [Example 2.27, 6-((5-(trifluoromethyl)furan-2-yl)methyl)-2,3,3′,7′-tetrahydro-2′H-spiro[[1,4]dioxino[2,3-f]indole-8,8′-benzofuro[5,6-b][1,4]dioxin]-7(6H)-one] | 176 to 178 | > 50 | 100 to 1000 |  | < 300
4 | O=C1N(Cc2ccc(C(F)(F)F)o2)c2ccccc2C12COc1cc3c(cc12)OC(F)(F)O3 (stereo not drawn) [Example 2.34, 2,2-difluoro-1′-{[5-(trifluoromethyl)furan-2-yl]methyl}spiro[furo[2,3-f][1,3]benzodioxole-7,3′-indol]-2′(1′H)-one] | 59 to 60 | > 50 | 100 to 1000 |  | > 300
5 | COCCOCCN1C(=O)C2(COc3cc4c(cc32)OCCO4)c2cc3c(cc21)OCCO3 (stereo not drawn) [Example 2.65, 6-[2-(2-methoxyethoxy)ethyl]-2,2′,3,3′-tetrahydrospiro[1,4-dioxino[2,3-f]indole-8,8′-furo[2,3-g][1,4]benzodioxin]-7(6H)-one] | 146 to 148 | < 50 | 1000 to 10000 |  | > 300
6 | COc1cc2c(cc1C)C1(CO2)C(=O)Nc2ccccc21 (stereo not drawn) [Example 3, 6-methoxy-5-methylspiro[1-benzofuran-3,3′-indol]-2′(1′H)-one] | > 250 | > 50 | 1000 to 10000 |  | > 300
7 | COc1cc2c(cc1C#N)C1(CO2)C(=O)Nc2ccccc21 (stereo not drawn) [Example 3.29, 6-methoxy-2′-oxo-1′,2′-dihydrospiro[1-benzofuran-3,3′-indole]-5-carbonitrile] | 185 to 186 | < 50 | 1000 to 10000 |  | > 300
8 | O=C1Nc2cccc(-c3cnc4ccccc4c3)c2C12COc1cc3c(cc12)OCCO3 (stereo not drawn) [Example 3.34, 4′-quinolin-3-yl-2,3-dihydrospiro[furo[2,3-g][1,4]benzodioxine-8,3′-indol]-2′(1′H)-one] | 221 to 224 | > 50 | 100 to 1000 |  | > 300
9 | O=C1Nc2cccc(-c3ccc(Oc4ccccc4)cc3)c2C12COc1cc3c(cc12)OCCO3 (stereo not drawn) [Example 3.35, 4′-(4-phenoxyphenyl)-2,3-dihydrospiro[furo[2,3-g][1,4]benzodioxine-8,3′-indol]-2′(1′H)-one] | 243 to 246 | > 50 | 100 to 1000 |  | > 300
10 | O=C1Nc2ccccc2C12COc1ccc3nonc3c12 (stereo not drawn) [Example 3.41, spiro[furo[3,2-e][2,1,3]benzoxadiazole-8,3′-indol]-2′(1′H)-one] | > 220 | < 50 | 1000 to 10000 |  | > 300

More lines, main results first:

Row | melting point [°C] | inhibition at 10 µM [2] [%] | IC50 ([3]; activity level class) [nM] | IC50 [3] [nM] | Structure (SMILES) | Ki [1] [nM]
11 | 187 to 193 | > 50 | 1 to 100 |  | N#Cc1cccc(CN2C(=O)C3(COc4cc5c(cc43)CCO5)c3ccccc32)c1 (stereo not drawn) [Example 4.22, 3-[(2′-oxo-5,6-dihydrospiro[benzo[1,2-b:5,4-b′]difuran-3,3′-indol]-1′(2′H)-yl)methyl]benzonitrile] | > 300
12 | 169 to 171 | > 50 | 1 to 100 |  | O=C1N(Cc2ccc3nonc3c2)c2ccccc2C12COc1cc3c(cc12)CCO3 (stereo not drawn) [Example 4.27, 1′-(2,1,3-benzoxadiazol-5-ylmethyl)-5,6-dihydrospiro[benzo[1,2-b:5,4-b′]difuran-3,3′-indol]-2′(1′H)-one] | > 300
13 | 162 to 164 | > 50 | 1 to 100 |  | O=C1N(Cc2ccc3nsnc3c2)c2ccccc2C12COc1cc3c(cc12)CCO3 (stereo not drawn) [Example 4.28, 1′-(2,1,3-benzothiadiazol-5-ylmethyl)-5,6-dihydrospiro[benzo[1,2-b:5,4-b′]difuran-3,3′-indol]-2′(1′H)-one] | < 300
14 | 65 to 70 | > 50 | 1000 to 10000 |  | O=C1N(CC2CN(Cc3ccccc3)CCO2)c2ccccc2C12COc1cc3c(cc12)CCO3 (stereo not drawn) [Example 4.29, 1′-[(4-benzylmorpholin-2-yl)methyl]-5,6-dihydrospiro[benzo[1,2-b:5,4-b′]difuran-3,3′-indol]-2′(1′H)-one] | > 300
15 | 134 to 137 | < 50 | 1 to 100 |  | CC(C)CCN1C(=O)C2(COc3cc4c(cc32)OCCO4)c2ccccc21 (stereo not drawn) [Example 4.36, 1′-(3-methylbutyl)-2,3-dihydrospiro[furo[2,3-g][1,4]benzodioxine-8,3′-indol]-2′(1′H)-one] | < 300
16 | 158 to 166 | < 50 | 1 to 100 |  | O=C1N(CC2CCCCO2)c2ccccc2C12COc1cc3c(cc12)OCCO3 (stereo not drawn) [Example 4.38, 1′-(tetrahydro-2H-pyran-2-ylmethyl)-2,3-dihydrospiro[furo[2,3-g][1,4]benzodioxine-8,3′-indol]-2′(1′H)-one] | < 300
17 | 173 to 175 | < 50 | 1 to 100 |  | O=C1N(C[C@@H]2CCCO2)c2ccccc2C12COc1cc3c(cc12)OCCO3 (stereo partly drawn) [Example 4.43, 1-[(2S)-tetrahydrofuran-2-ylmethyl]-2,3-dihydrospiro[furo[2,3-g][1,4]benzodioxine-8,3′-indol]-2′(1′H)-one] | > 300
18 | 160 to 165 | < 50 | 1 to 100 |  | O=C1N(CC2COCCO2)c2ccccc2C12COc1cc3c(cc12)OCCO3 (stereo not drawn) [Example 4.45, 1′-(1,4-dioxan-2-ylmethyl)-2,3-dihydrospiro[furo[2,3-g][1,4]benzodioxine-8,3′-indol]-2′(1′H)-one] | > 300
19 | 198 to 200 |  | 1 to 100 |  | O=C1N(C[C@H]2COCCO2)c2ccccc2[C@]12COc1cc3c(cc12)OCCO3 [Example 8.7, (8S)-1′-[(2S)-1,4-dioxan-2-ylmethyl]-2,3-dihydrospiro[furo[2,3-g][1,4]benzodioxine-8,3′-indol]-2′(1′H)-one] | > 300
20 |  | > 50 |  | 1 to 100 | COc1ccc(-c2cccc3c2C2(COc4cc5c(cc42)CCO5)C(=O)N3C[C@H]2CCCO2)cc1 (stereo partly drawn) [Example 16.9, 4′-(4-methoxyphenyl)-1′-[(2R)-tetrahydrofuran-2-ylmethyl]-5,6-dihydrospiro[benzo[1,2-b:5,4-b′]difuran-3,3′-indol]-2′(1′H)-one] | < 300
21 |  | > 50 |  | 1000 to 10000 | O=C1N(C[C@H]2CCCO2)c2cccc(-c3cncnc3)c2C12COc1cc3c(cc12)CCO3 (stereo partly drawn) [Example 16.10, 4′-pyrimidin-5-yl-1′-[(2R)-tetrahydrofuran-2-ylmethyl]-5,6-dihydrospiro[benzo[1,2-b:5,4-b′]difuran-3,3′-indol]-2′(1′H)-one] | > 300
